What follows are molecules tested on RAW264.7 (assay: Antiinflammatory activity against IFN-gamma, TNF-alpha and IL-1-stimulated mouse RAW264.7 cells assessed as inhibition of cellular iNOS synthesis).
Format: functional, cell-based

| Structure (SMILES) | IC50 |
| --- | --- |
| C[C@H]1[C@H](C)CC[C@]2(C(=O)O)CC[C@]3(C)C(=CC[C@@H]4[C@@]5(C)C=CC(=O)C(C)(C)[C@@H]5CC[C@]43C)[C@H]12 | 6 µM |
| C[C@H]1[C@H](C)CC[C@]2(C(=O)O)CC[C@]3(C)C(=CC(=O)[C@@H]4[C@@]5(C)C=CC(=O)C(C)(C)[C@@H]5CC[C@]43C)[C@H]12 | 17.6 µM |
| CC1(C)CC[C@]2(C(=O)O)CC[C@]3(C)[C@H](C(=O)C=C4[C@@]5(C)C=CC(=O)C(C)(C)[C@@H]5CC[C@]43C)[C@@H]2C1 | 0.2 µM |
